{
  "source": "patent US20230233586A1",
  "about": "“COMPOUNDS AND METHODS FOR TREATING FUNGAL INFECTIONS” (Amplyx Pharmaceuticals, Inc., priority 2020, published 2023)",
  "key": {"[1]": {"biological_target": "fungal glycosylphosphatidylinositol (GPI)-anchored wall transfer protein 1 (GWT1) enzyme (Saccharomyces cerevisiae, UniProt P47026)", "sequence (P47026 whole entry)": "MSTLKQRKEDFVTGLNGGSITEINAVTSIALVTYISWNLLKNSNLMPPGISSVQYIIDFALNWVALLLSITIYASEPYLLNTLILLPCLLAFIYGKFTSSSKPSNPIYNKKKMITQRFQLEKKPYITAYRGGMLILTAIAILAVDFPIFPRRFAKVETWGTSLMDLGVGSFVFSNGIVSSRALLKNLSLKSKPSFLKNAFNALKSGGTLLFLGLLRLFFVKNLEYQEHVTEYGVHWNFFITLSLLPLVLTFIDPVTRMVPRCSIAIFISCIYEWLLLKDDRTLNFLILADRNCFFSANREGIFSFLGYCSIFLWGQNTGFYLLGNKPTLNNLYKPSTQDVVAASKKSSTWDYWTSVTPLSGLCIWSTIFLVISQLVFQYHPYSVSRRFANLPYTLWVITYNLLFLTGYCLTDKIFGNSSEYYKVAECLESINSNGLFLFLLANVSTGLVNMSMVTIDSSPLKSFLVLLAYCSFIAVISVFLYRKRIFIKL", "experiment": "Inhibition of fungal GWT1 enzyme", "type": "biochemical", "text": "(§1) Compound 1A inhibits the fungal glycosylphosphatidylinositol (GPI)-anchored wall transfer protein 1 (GWT1) enzyme, a highly conserved inositol acylase that catalyzes an early step in the GPI-anchored biosynthesis pathway. This inhibition has pleiotropic effects on the fungal cell due to inhibition of cell wall mannoprotein localization, which comprises cell wall integrity, biofilm formation, germ tube formation, and fungal growth."}, "[2]": {"biological_target": "T1, phosphatidylinositol glycan anchor biosynthesis class W (PIGW) protein (Homo sapiens, UniProt Q7Z7B1)", "T1 sequence (Q7Z7B1 1-504)": "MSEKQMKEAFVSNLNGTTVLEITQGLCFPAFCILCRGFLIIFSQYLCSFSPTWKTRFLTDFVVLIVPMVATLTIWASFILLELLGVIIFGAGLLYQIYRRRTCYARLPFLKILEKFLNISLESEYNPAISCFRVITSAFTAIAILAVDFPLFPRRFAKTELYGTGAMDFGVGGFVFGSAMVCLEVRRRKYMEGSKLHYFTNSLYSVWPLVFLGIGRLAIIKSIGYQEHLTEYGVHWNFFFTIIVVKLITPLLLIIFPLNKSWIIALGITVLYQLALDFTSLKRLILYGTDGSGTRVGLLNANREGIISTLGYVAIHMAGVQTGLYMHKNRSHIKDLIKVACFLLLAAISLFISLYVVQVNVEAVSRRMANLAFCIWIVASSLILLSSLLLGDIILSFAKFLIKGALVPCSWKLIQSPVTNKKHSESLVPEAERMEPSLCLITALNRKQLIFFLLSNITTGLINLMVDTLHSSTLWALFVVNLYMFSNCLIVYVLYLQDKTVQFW", "experiment": "Inhibition of PIGW, closest mammalian ortholog of GWT1", "type": "biochemical", "settings": "closest mammalian ortholog of fungal GWT1", "text": "as §1"}, "[3]": {"test_system": "Candida spp., Cryptococcus spp., Aspergillus spp., Scedosporium spp., Fusarium spp., and some Mucorales fungi", "experiment": "In vitro antifungal activity", "type": "cell-based", "settings": "including azole- and echinocandin-resistant strains"}, "[4]": {"test_system": "clinical isolates of rare mold infections and rare yeast infections", "experiment": "Antifungal activity against clinical isolates of rare mold and rare yeast infections", "type": "cell-based", "settings": "broad range of clinical isolates of rare mold and rare yeast infections", "text": "These rare mold and rare yeast species generally pose no threat to healthy subjects, but can lead to invasive mold infections in immunocompromised individuals."}, "[5]": {"test_system": "Aspergillus fumigatus, Scedosporium prolificans, and Fusarium solani", "experiment": "5-fluorouracil immunosuppressed mice with IMIs", "type": "in vivo"}, "[6]": {"test_system": "A. fumigatus, S. apiospermum, F. solani, and Rhizopus spp.", "experiment": "Cyclophosphamide and cortisone acetate immunosuppressed mice with IMIs", "type": "in vivo"}, "[7]": {"experiment": "Phase 1 studies in healthy volunteers, safety and tolerability", "type": "in vivo, human", "text": "In Phase 1 clinical studies of compound 1, the safety, tolerability, and PK of single and multiple ascending doses administered intravenously (IV) and orally (PO) have been studied. To date, a total of 197 healthy volunteers and 21 patients with acute myeloid leukemia (AML) have received compound 1 across 5 Phase 1 studies. The duration of the multiple-dose regimens in these studies was 7, 14, and 42 days (6 weeks).\nThe majority of the TEAEs were mild, transitory, and resolved without intervention. […] This IV dose regimen is identical to the IV dose regimen that will be used in this study. […] This PO-dose regimen is higher than the 700 mg PO dose that will be used in this study."}, "Candida spp. [8]": {"test_system": "Candida spp.", "experiment": "Open-label study in non-neutropenic patients with candidemia", "type": "in vivo, human", "description": "Suspicion of antifungal-resistant candidemia is sufficient and subsequent documented resistance is not required for enrollment. The Study Drug Treatment Period will be up to a maximum of 14 days (inclusive of the loading dose [Study Day 1]). […] There will be a Follow-up Period of 4 weeks (+4 days) after EOT. The total duration of participation in the study is up to approximately 7.5 weeks (inclusive of the Screening Period [≤96 hours prior to Baseline]).\nPatients with a yeast identified in a blood culture or a positive rapid diagnostic method are eligible to be consented and screened for the study. Patients must have at least 1 positive blood test for Candida spp. (or yeast suspected to be Candida) for a diagnosis of candidemia to be considered for enrollment into the study. Patients with a positive blood culture showing yeast suspected to be Candida must have identification of Candida spp. from positive blood culture confirmed prior to dosing. Screening and Baseline procedures and the start of Compound 1 study drug will be initiated within 96 hours from the time that the SOC blood sample for the Candida spp. positive culture or rapid diagnostic test was drawn. Patients with 2 days (>48 hours) equivalent of prior systemic antifungal treatment at approved doses to treat the current episode of candidemia within 96 hours before first dose will be excluded.\nOn Study Day 1 (or over the first 24 hours if started in the evening), a 1000 mg Compound 1 loading dose will be administered over 3 hours by IV infusion BID. On Study Days 2 and 3 of study drug, a 600 mg Compound 1 maintenance dose will be administered over 3 hours by IV infusion QD. On Study Day 4 and onward, the Compound 1 maintenance dose will be administered as either 600 mg Compound 1 IV infusion QD over 3 hours or 700 mg PO QD. […] Study drug will be administered for a maximum of 14 days. […] Candida spp. bloodstream infection will be monitored by daily blood culture during Study Drug Treatment until 2 consecutive blood cultures are negative, and at EOST, EOT, and 2 and 4 weeks after EOT, or Early Termination. Simultaneously drawn blood samples will be collected for Candida testing by T2 magnetic resonance (T2MR) assay at Baseline, during Study Drug Treatment, and EOST, or Early Termination. Other cultures, histopathology, and imaging tests to assess the site(s) and extent of candidemia infection at other sites will be conducted as clinically indicated, and the results should be recorded in the electronic Case Report Form (eCRF). The management of intravascular catheters, intravascular devices, and, if applicable, any drains will be recorded, including any associated microbiology results. Patients will be monitored for safety throughout the duration of the study.\nOn Study Day 1 (or over the first 24 hours if started in the evening), a 1000 mg Compound 1 loading dose will be administered over 3 hours by IV infusion BID. On Study Days 2 and 3 of study drug, a 600 mg Compound 1 maintenance dose will be administered over 3 hours by IV infusion QD. On Study Day 4 and onward, the Compound 1 maintenance dose will be administered as either 600 mg Compound 1 IV infusion QD over 3 hours or 700 mg PO QD. […] Study drug will be administered for a maximum of 14 days (inclusive of the loading dose [Study Day 1]). Tablets are to be administered at the same time each day, whole, and taken by mouth with water within 30 minutes of being removed from the refrigerator. No splitting or crushing of tablets is allowed.\nIf applicable, an assessment of efficacy will also be made at the end of this antifungal treatment at EOT.\nEradication is defined as a negative blood culture(s) for Candida spp. in the absence of additional antifungal therapy (except for protocol-allowed step-down treatment [e.g., fluconazole]) through EOT"}, "Candida spp. [9]": {"test_system": "Candida spp.", "experiment": "In vitro activity against Candida spp. isolates from the study", "type": "cell-based", "settings": "including isolates resistant to other antifungal agents", "quoted_text": "A total of 21 patients were enrolled in the study: 20 were included in the mITT. Median duration of Compound 1 therapy was 11 days (range 5 to 14). All patients received IV Compound 1, 48% (10/21) received PO Compound 1."}, "Tissue distribution": {"experiment": "Tissue distribution", "type": "in vivo", "settings": "IV and PO formulations", "text": "Compound 1 has a novel mechanism of action with broad spectrum activity against Candida spp. (yeast) and Aspergillus spp. (mold), including activity against polyene and azole-resistant strains of Aspergillus spp. […] Compound 1 has the potential to be used as a first-line agent for the treatment of IMIs through a unique mechanism of action. Thus, compound 1 has potential to fill an unmet need for patients with limited or no antifungal treatment options due to documented/anticipated resistance, contraindication, intolerance, or lack of clinical response to standard of care (SOC) antifungal therapy."}, "[10]": {"settings": "in vivo"}, "[11]": {"settings": "patients with renal insufficiency"}, "[12]": {"settings": "patients with renal insufficiency (n=14)"}},
  "data": [
    {"smiles": "Nc1ncccc1-c1cc(Cc2ccc(COc3ccccn3)cc2)no1", "note": "[Compound 1A]", "values": [
      {"measurement": "inhibition of fungal GWT1 enzyme", "setting": "[1]", "result": "inhibits"},
      {"measurement": "inhibition of PIGW protein", "setting": "[2]", "result": "does not inhibit"},
      {"measurement": "in vitro antifungal activity", "setting": "[3]", "result": "broad in vitro antifungal activity"},
      {"measurement": "antifungal activity against clinical isolates", "setting": "[4]", "result": "demonstrated antifungal activity"},
      {"measurement": "pulmonary fungal colony counts", "setting": "[5]", "result": "reduced pulmonary fungal colony counts"},
      {"measurement": "survival rates", "setting": "[5]", "result": "statistically significantly improved survival rates"}
    ]},
    {"smiles": "Nc1c(-c2cc(Cc3ccc(COc4ccccn4)cc3)no2)ccc[n+]1COP(=O)([O-])O", "note": "[Compound 1]", "values": [
      {"measurement": "pulmonary fungal colony counts", "setting": "[5]", "result": "reduced pulmonary fungal colony counts"},
      {"measurement": "survival rates", "setting": "[5]", "result": "statistically significantly improved survival rates"},
      {"measurement": "fungal burden", "setting": "[6]", "result": "reduced fungal burden"},
      {"measurement": "survival rates", "setting": "[6]", "result": "statistically significantly improved survival rates"},
      {"measurement": "DLTs", "setting": "[7]; 2 Phase 1 studies, healthy volunteers", "result": "No DLTs were observed"},
      {"measurement": "safety and tolerability", "setting": "[7]; 2 Phase 1 studies, healthy volunteers, IV and PO formulations", "result": "safe and well tolerated"},
      {"measurement": "safety and tolerability", "setting": "[7]; FIH Phase 1: 1000 mg IV 2-hour infusion BID Day 1, then 600 mg IV 1-hour infusion QD Days 2 through 7", "result": "safe and well tolerated"},
      {"measurement": "safety and tolerability", "setting": "[7]; second Phase 1 study: 1000 mg PO QD Days 1 through 14", "result": "safe and well tolerated"},
      {"measurement": "DRC-assessed success rate at EOST", "setting": "Candida spp. [8]; mITT (16/20)", "result": 80, "unit": "%"},
      {"measurement": "Survival at day 30", "setting": "Candida spp. [8]; mITT (17/20)", "result": 85, "unit": "%"},
      {"measurement": "tolerability", "setting": "Candida spp. [8]; patients with candidemia, up to 14 days", "result": "well-tolerated with no treatment-related serious adverse events or discontinuations"},
      {"measurement": "effect of renal impairment on exposure", "setting": "Candida spp. [8]; [11]", "result": "did not increase exposure"},
      {"measurement": "treatment-related adverse events", "setting": "Candida spp. [8]; [11]", "result": "no treatment-related adverse events"},
      {"measurement": "Treatment success rate at EOST", "setting": "Candida spp. [8]; patients with renal insufficiency (12/14)", "result": 86, "unit": "%"},
      {"measurement": "worsening of renal function at EOST", "setting": "Candida spp. [8]; [12]", "result": "None"},
      {"measurement": "worsening of renal function during the follow-up period", "setting": "Candida spp. [8]; [12]", "result": 4, "unit": "patients"},
      {"measurement": "in vitro activity against Candida spp. from the study", "setting": "Candida spp. [9]", "result": "potent in vitro activity"},
      {"measurement": "tissue distribution", "setting": "Tissue distribution", "result": "wide-tissue distribution, including the eye and central nervous system"},
      {"measurement": "conversion of prodrug to compound 1A", "setting": "[10]", "result": "rapidly converted in vivo"}
    ]}
  ]
}
